Columns and labels:
[1] = system: GC-2spd, GC-1spg and TM4 cells; assay: γ-H2AX protein level in three germ-cell lines (western blot); format: cell-based, mouse; details: 8h/16h treatment
Procedure: Mouse GC-1spg (spermatogonia-like, ATCC number: CRL-2053), TM4 (Sertoli cell-like, ATCC number: CRL-1715), and GC-2spd (spermatocyte-like, ATCC number: CRL-2196) were purchased from ATCC (Manassas, VA). Cells were grown in a 5% CO2 atmosphere at 37°C. TM4 was cultured in DMEM supplemented with 5% horse serum, 2.5% fetal bovine serum and 1x antibiotic-antimyotic (Cat. NO. 15240062, Life technologies). GC-1spg and GC-2spd were cultured in DMEM supplemented with 10% fetal bovine serum (Cat. No. F2442, Sigma, USA) and 1x antibiotic-antimyotic (Cat.NO. 15240062, Life technologies).
Cells were washed twice with ice-cold PBS (137 mM NaCl, 2.7 mM KCl, 10 mM Na2HPO4, and 1.8 mM KH2PO4, pH 7.4) and lysed in SDS sample buffer. Cell lysates, containing 20 μg of protein, were separated with SDS-PAGE (8%) and transferred to polyvinylidene difluoride membranes. […]
The effects of LLDT-8 on the expression of γ-H2AX was investigated in spermatocyte-like GC-2spd cells (A), spermatogonia-like cells (B) and sertoli-like cells (C) after 8h/16h treatment of LLDT-8 at indicated concentration. The protein level was quantified with ImageQuant software. β-actin was used as a loading control. Significant difference was determined by one-way Anova, Bars represent the mean ± SD, n = 3, * p<0.05, ** p<0.01 vs control group (0 nM).

mice testes = assay: Testicular toxicity comparison between triptolide and LLDT-8 (15 days by gavage, H&E); format: in vivo, mouse; details: 0.5 mg/kg by gavage for 15 days
Procedure: For toxicity experiments, mice (n = 3 for each group) were treated with tritpilide (0.125, 0.25, 0.5mg/kg), LLDT-8 (0.125, 0.25, 0.5mg/kg) consecutively administered by gavage for 15 days. The control group received saline. Mice were sacrificed on the 15th day post-administration and blood, liver, kidney, spleen, testis and epididymis were collected. The main lobe of liver, kidney, spleen and epididymis were fixed in 10% neutral buffered formalin for histological examination, the left testicle was fixed in Davidson’s buffer for 16 hours followed by 10% neutral buffered formalin. Tissue sections were stained with hematoxylin and eosin (H&E). Remaining tissues were stored at -80 °C for RNA and protein extraction.
Supplementary Figure S1 Comparison of testicular toxicity between triptolide(TL) and LLDT-8. Mice (n=3) were weighted before sacrificed on the 15th day post-administration of triptolide, LLDT-8 or saline. The testes were collected and weighted. […] (G-H) Comparison of epididymis weight between triptolide and LLDT-8. Significant difference was determined by one-way Anova, mean ± SD. * p<0.05, *** p<0.001 vs Saline group. # p<0.05, ## p<0.01, ### p<0.001 vs T8 group at the same dosage.

γ-H2AX = γ-H2AX protein level and localization in testes and liver (western blot, immunofluorescence); format: in vivo, mouse
Procedure: (§1) For toxicity experiments, mice (n = 3/group) were treated with LLDT-8 (0.5 or 1.0 mg/kg) consecutively administered by gavage for 15 days. Controls received saline. Mice were killed on the 15th-day post-administration and blood, liver, kidney, spleen, testes, and epididymis were collected. About 500 μL blood samples were collected from the heart. The main lobe of the liver, kidney, spleen, and epididymis was fixed in 10% neutral buffered formalin for histological examination, and the left testicle was fixed in modified Davidson's buffer (30% of a 37–40% solution of formaldehyde, 15% ethanol, 5% glacial acetic acid, and 50% distilled H2O) for 16 h followed by 10% neutral buffered formalin for 24 h (Latendresse et al., [2002]). Tissue sections were stained with hematoxylin and eosin (H&E). Remaining tissues were stored at −80°C for RNA and protein extraction.
(§2) Cells were washed twice with ice-cold PBS (137 mM NaCl, 2.7 mM KCl, 10 mM Na2HPO4, and 1.8 mM KH2PO4, pH 7.4) and lysed in SDS sample buffer. Cell lysates, containing 20 μg of protein, were separated with SDS-PAGE (8%) and transferred to polyvinylidene difluoride membranes. After blocking in 5% non-fat milk in tris-buffered saline containing 0.1% Tween-20 (pH = 7.6), membranes were incubated with the appropriate primary antibodies at 4°C overnight. The primary antibodies γ-H2AX (Cat. No: 2577, Lot. No: 11, CST, USA) and Pol II (Cat. No: 05-623, Lot. No: 2397109, Millipore, USA) diluted 1:1000 in 5% bovine serum albumin (BSA, Cat. No. B2064-50G, Sigma, USA). Then the membranes were exposed to secondary antibodies (1:10,000, Cat. No.111-035-003, 115-035-003, Jackson ImmunoResearch Laboratories, USA) in 5% non-fat milk for 1 h at room temperature. Immunoreactive proteins were visualized using an enhanced chemiluminescent system (Cat. No. WBKLS0500, Millipore, Shanghai, China).
For immunofluorescence analysis, the paraffin-embedded testis tissue samples were deparaffinized three times in exchanges wash of xylene. The testis sections were then gradually rehydrated using decreasing ethanol concentrations followed by PBS (pH = 7.4). After antigen retrieval in boiling 0.1M citrate buffer (pH = 6.0), the tissue sections were placed in humidity chambers and incubated with 4% BSA in PBS for 2 h at room temperature. Then 1:400 1% BSA diluted γ-H2AX primary antibody (Cat. No: ab26350, Lot. No: GR305763-3, Abcam, USA) and isotope control Mouse IgG1 (Cat. No: sc-3877, Lot. No: F1316, Santa Cruz, USA) was used. After incubated with primary antibody overnight at 4°C, testis tissue samples were washed three times with PBS. […]

RNA polymerase II = RNA polymerase II protein level in testes and liver (western blot); format: in vivo, mouse; details: 0.5–1 mg/kg, 15 days
Procedure: as §1, §2

Structure (SMILES): CC(C)[C@]12O[C@H]1[C@@H]1O[C@]13[C@]1(O[C@H]1C[C@@]1(O)C4=C(CC[C@]31C)C(=O)OC4)[C@@H]2O [LLDT-8, (5R)-5-hydroxytriptolide]
- protein levels of γ-H2AX in three germ-cell lines [1]: did not decrease
- testis morphology (H&E) (mice testes): did not obviously alter the normal morphology of testes
- XY bodies indicated by γ-H2AX foci in testes of WT mice (γ-H2AX; 1.0 mg/kg LLDT-8, 15 days): decreased
- γ-H2AX protein level (immunoblotting) in testes and liver (γ-H2AX; 0.5–1 mg/kg, 15 days): reduction of γ-H2AX protein level in the testes but not in the liver
- XY bodies indicated by γ-H2AX foci in testes of KO mice (γ-H2AX; LLDT-8 treated, 15 days): disappeared
- reduction of γ-H2AX in the testes of WT mice (γ-H2AX; immunoblotting, not statistically significant): up to 40%
- Pol II protein in the testes of KO mice (RNA polymerase II): decreased
- Pol II protein level in the livers of KO mice (RNA polymerase II): did not change
- expression of Pol II in the testes and liver of WT mice (RNA polymerase II): did not change significantly

— article PMC5702336, “Critical Role of Hepatic Cyp450s in the Testis-Specific Toxicity of (5R)-5-Hydroxytriptolide in C57BL/6 Mice” (Frontiers in Pharmacology, 2017)
